Data on 20 compounds can be found in patent US20040180888A1 (priority 2001, published 2004).

Like-named read-outs stand apart in the source and are kept apart here. Where only a bound is given, the exact number is not on record here.

For one data set, the system named is HIV-1. Conditions: for (Nx) protein binding shift α-GP 1 mg/mL: EC90 with 1 mg/mL glycoprotein versus RPMI; for (Nx) protein binding shift HSA 45 mg/mL: EC90 with 45 mg/mL HSA versus RPMI.
The subject of a further data set is mock-infected MT-4 cells. Description: Viability of mock-infected MT-4 cells, MTT method. Format: cell-based.
Data set [1] deals with HIV-1 WTIIIB. Briefly: p24 reduction in virus-infected C8166 cells, WTIIIB. Format: cell-based.
Data set [2] relates to HIV-1 WTIIIB. Briefly: Protection of MT-4 cells from HIV-1-induced cytopathogenicity, MTT method, WTIIIB. Format: cell-based. From the text: Example 26 illustrates the influence of substituents at positions 4, 5, 6, and 7 of the indole ring, in which position 2 of the indole ring is maintained constant, and the substitution at the 3,5-position of the phenyl ring is either hydrogen or held constant with a 3,5-dimethyl substitution. Table 3 presents the influence of these variations on the ability of the compounds to protect cells from HIV-1 induced pathogenecity.

The subject of another data set is HIV-1 K103R. Briefly: microbe, parasite or virus in culture. Format: cell-based. The note with it: for K103R (Nx) resistance shift: EC90 K103R versus WTIIIB.
Another data set relates to HIV-1 Y181C. Description: microbe, parasite or virus in culture. Format: cell-based. The note with it: for Y181C (Nx) resistance shift: EC50 Y181C versus WTIIIB.
The nature of data set [3]: Viability of mock-infected MT-4 cells, MTT method. Format: cell-based. The note with it: human; mock-infected MT-4 cells, MTT.
In another data set the test system is HIV-1 K103N-Y181C. Description: microbe, parasite or virus in culture. Format: cell-based. Conditions: for K103N-Y181C (Nx) resistance shift: EC50 K103N-Y181C versus WTIIIB.
The mark [4] stands for this setting: read-out: EC90 HSA 45 mg/mL, HIV-1-infected MT-4 cells, RPMI 10% FCS plus 45 mg/mL human serum albumin.
[5] abbreviates: read-out: EC90 RPMI, reduce p24 by 90% in HIV-1-infected MT-4 cells, RPMI 10% FCS.
The mark [6] stands for this setting: read-out: EC90 α-GP 1 mg/mL, HIV-1-infected MT-4 cells, RPMI 10% FCS plus 1 mg/mL glycoprotein.
Setting [7] is: Human immunodeficiency virus 1, MT4, 50% protection of MT-4 cells.
[8] abbreviates: Human immunodeficiency virus 1, MT4, read-out: Y181C EC50.
Setting [9] is: Human immunodeficiency virus 1, MT4, read-out: K103N-Y181C EC50.
Where [10] appears, read: reduce p24 by 90% in virus-infected C8166 cells, read-out: WTIIIB EC90.
Where [11] appears, read: reduce p24 by 90% in virus-infected C8166 cells, read-out: K103R EC90.
Where [12] appears, read: 50% protection of MT-4 cells, MTT, read-out: Y181C EC50.
The mark [13] stands for this setting: 50% protection of MT-4 cells, MTT, read-out: K103N-Y181C EC50.

For “5-Chloro-3-(3,5-dimethylphenylsulfonyl)-indole-2-carboxyamide [compound 2]”, the “(Nx) protein binding shift α-GP 1 mg/mL” value with HIV-1 is on record as 2 x. In addition, the “(Nx) protein binding shift HSA 45 mg/mL” value in the data set on HIV-1 turned out to be 40 x. Moreover, the EC90 was found to be 200 nM with HIV-1 (setting [4]), 5 nM with HIV-1 (setting [5]) and 10 nM in the data set with HIV-1 (setting [6]).
`Cc1cc(C)cc(S(=O)(=O)c2c(CC(N)=O)[nH]c3ccc(Cl)c(F)c23)c1` [5g, 5-Chloro-3-(3,5-dimethylphenylsulfonyl)-4-fluoroindole-2-carboxyamide]: the melting point was 268 to 270 °C.
In turn, `Cc1cc(C)cc(S(=O)(=O)c2c(CC(N)=O)[nH]c3ccc(F)c(Cl)c23)c1` [5h, 4-Chloro-3-(3,5-dimethylphenylsulfonyl)-5-fluoroindole-2-carboxyamide] yielded a melting point of 279 to 280 °C.
The same measure, in the same setting: the value for `Cc1cc(C)cc(S(=O)(=O)c2c(CC(N)=O)[nH]c3cc(Cl)c(F)cc23)c1` [5i, 6-Chloro-3-(3,5-dimethylphenylsulfonyl)-5-fluoroindole-2-carboxyamide] was 262 to 264 °C.
Same read-out and setting: next, `Cc1cc(C)cc(S(=O)(=O)c2c(CC(N)=O)[nH]c3ccc([N+](=O)[O-])cc23)c1` [5k, 5-Nitro-3-(3,5-dimethylphenylsulfonyl)indole-2-carboxyamide]: 270 to 272 °C.
The same measure, in the same setting: next, `CC(=O)c1ccc2[nH]c(CC(N)=O)c(Sc3cc(C)cc(C)c3)c2c1` [5l, 5-Acetyl-3-(3,5-dimethylphenylthio)indole-2-carboxyamide]: above 300 °C; `NC(=O)Cc1[nH]c2ccc(-n3cccc3)cc2c1S(=O)(=O)c1ccccc1` [25a, 5-(1H-Pyrrol-1-yl)-3-(phenylsulfonyl)indole-2-carboxyamide]: 250 °C.
Regarding `CNNC(=O)c1[nH]c2ccc(Cl)cc2c1S(=O)(=O)c1cc(C)cc(C)c1` [Compd 10], the CC50 in the data set with mock-infected MT-4 cells was above 200 µM.
The same measure, in the same setting: next, `Cc1cc(C)cc(S(=O)(=O)c2c(C(=O)NNC(C)C)[nH]c3ccc(Cl)cc23)c1` [Compd 11]: 17 µM.
`Cc1cc(C)cc(S(=O)(=O)c2c(C(=O)N3CCN(C)CC3)[nH]c3ccc(Cl)cc23)c1` [Compd 13]: in the data set with mock-infected MT-4 cells, the cytotoxic concentration (CC50) was above 200 µM.
On to `O=C1Nc2ccc(Cl)cc2[C@@](C#CC2CC2)(C(F)(F)F)O1` [EFV, efavirenz, reference compound], for which the EC90 amounted to 8 nM in the data set with HIV-1 WTIIIB [1] (Human immunodeficiency virus 1, C8166, read-out: WTIIIB EC90) and 1800 nM with HIV-1 K103R (Human immunodeficiency virus 1, C8166, read-out: K103R EC90). For the same compound, the EC50 in the data set with HIV-1 WTIIIB [2] (setting [7]) is 4 nM; in the data set with HIV-1 Y181C (setting [8]), 25 nM; in the data set with HIV-1 K103N-Y181C (setting [9]) it was 150 nM. Further, the midpoint of cytotoxicity in data set [3], the CC50, lay at 35 µM.
Turning to `Cc1ccnc2c1NC(=O)c1cccnc1N2C1CC1` [NVP, nevirapine, reference compound], the results for the concentration giving a half-maximal response (EC50) in the data set with HIV-1 WTIIIB [2] (setting [7]), in the data set on HIV-1 Y181C (setting [8]) and with HIV-1 K103N-Y181C (setting [9]) were 370 nM, above 30000 nM and above 30000 nM, respectively. In data set [3], this compound showed a 50% cytotoxic concentration (CC50) of 200 µM.
Consider `NC(=O)c1[nH]c2ccc(Cl)cc2c1S(=O)(=O)c1ccccc1` [compound 1], for which, in the data set on HIV-1, the “(Nx) protein binding shift α-GP 1 mg/mL” value came out at 2 x. The “(Nx) protein binding shift HSA 45 mg/mL” value in the data set on HIV-1 came to 10 x. Besides, the values for the EC90 in the data set on HIV-1 (setting [4]), with HIV-1 (setting [5]) and in the data set with HIV-1 (setting [6]) were 10 nM, 1 nM and 2 nM, respectively.
As for `Cc1cc(C)cc(S(=O)(=O)c2c(C(=O)NNCCO)[nH]c3ccc(Cl)cc23)c1` [compound 3, 5-Chloro-3-(3,5-dimethylphenylsulfonyl)indole-2-[N′-(2-hydroxy-ethyl)]-carboxyhydrazide], the “(Nx) protein binding shift α-GP 1 mg/mL” value with HIV-1 came to 7 x. The “(Nx) protein binding shift HSA 45 mg/mL” value with HIV-1 amounted to 67 x. Also, the EC90 was 270 nM with HIV-1 (setting [4]), 4 nM with HIV-1 (setting [5]) and 30 nM with HIV-1 (setting [6]).
Take `Cc1cc(C)cc(S(=O)(=O)c2c(C(=O)NCC(N)=O)[nH]c3ccc(Cl)cc23)c1` [compound 4, 2-[N-[5-Chloro-3-(3,5-dimethylphenylsulfonyl)indol-2-carboxy-amido]]-acetamide]: the EC90 amounted to 10 nM in the data set on HIV-1 WTIIIB [1] (setting [10]); 100 nM with HIV-1 K103R (setting [11]); 4800 nM in the data set on HIV-1 (setting [4]); 60 nM in the data set on HIV-1 (setting [5]); 200 nM in the data set with HIV-1 (setting [6]). For the same compound, the EC50 is 6 nM in the data set on HIV-1 WTIIIB [2] (50% protection of MT-4 cells), 30 nM in the data set with HIV-1 Y181C (setting [12]) and 800 nM in the data set with HIV-1 K103N-Y181C (setting [13]). The “K103R (Nx) resistance shift” value with HIV-1 K103R was 10 x. Besides, in the data set on HIV-1 Y181C, the “Y181C (Nx) resistance shift” value is recorded as 5 x. This compound displayed a half-maximal cytotoxic concentration (CC50) in the data set on mock-infected MT-4 cells of 30 µM. Moreover, the “(Nx) protein binding shift α-GP 1 mg/mL” value in the data set with HIV-1 was found to be 3 x. For the same compound, in the data set with HIV-1, the “(Nx) protein binding shift HSA 45 mg/mL” value stood at 80 x. In the data set on HIV-1 K103N-Y181C, the “K103N-Y181C (Nx) resistance shift” value is on record as 133 x.
For the compound `NC(=O)c1[nH]c2cc(Cl)c(Cl)cc2c1S(=O)(=O)c1ccccc1` [compound 8], the EC90 in the data set with HIV-1 WTIIIB [1] (setting [10]) stood at 170 nM; in the data set on HIV-1 K103R (setting [11]), 16000 nM. Moreover, the EC50 is 140 nM in the data set on HIV-1 WTIIIB [2] (50% protection of MT-4 cells), 2600 nM in the data set on HIV-1 Y181C (setting [12]) and above 100000 nM in the data set with HIV-1 K103N-Y181C (setting [13]). For the same compound, the “K103R (Nx) resistance shift” value with HIV-1 K103R came out at 94 x. Moreover, the “Y181C (Nx) resistance shift” value in the data set with HIV-1 Y181C stood at 18 x. Moreover, the 50% cytotoxic concentration (CC50) in the data set on mock-infected MT-4 cells stood at 123 µM. Moreover, the “K103N-Y181C (Nx) resistance shift” value with HIV-1 K103N-Y181C is above 714 x.
Compound `Cc1cc(C)cc(S(=O)(=O)c2c(CC(N)=O)[nH]c3c(Cl)cc(Cl)cc23)c1` [compound 10, 5,7-Dichloro-3-(3,5-dimethylphenylsulfonyl)indole-2-carboxyamide] yielded a melting point above 300 °C.
Still for that read-out and setting: the value for `Cc1cc(C)cc(S(=O)(=O)c2c(CC(N)=O)[nH]c3ccc(F)c(F)c23)c1` [compound 11, 3-(3,5-Dimethylphenylsulfonyl)-4,5-difluoroindole-2-carboxyamide] was 298 to 300 °C.
As to `Cc1cc(C)cc(S(=O)(=O)c2c(C(N)=O)[nH]c3cc(F)c(F)cc23)c1` [compound 12, 3-(3,5-Dimethylpbenylsulfonyl)-5,6-difluoroindole-2-carboxyamide], the EC50 in the data set with HIV-1 WTIIIB [2] (50% protection of MT-4 cells) was at most 3 nM; in the data set with HIV-1 Y181C (setting [12]), 70 nM; with HIV-1 K103N-Y181C (setting [13]), 2600 nM. Besides, in the data set on HIV-1 Y181C, the “Y181C (Nx) resistance shift” value is “(≧23.3) x”. For the same compound, the “K103N-Y181C (Nx) resistance shift” value in the data set with HIV-1 K103N-Y181C is given as at least 866 x.
`Cc1cc(C)cc(S(=O)(=O)c2c(CC(N)=O)[nH]c3c(F)cc(F)cc23)c1` [compound 13, 3-(3,5-Dimethylphenylsulfonyl)-5,7-difluoroindole-2-carboxyamide] returned a melting point above 300 °C.
